Assay results reported in patent US20060188921A1, “Methods for diagnosing and treating systemic lupus erythematosus disease and compositions thereof” (Wyeth, priority 2001, published 2006).

System: whole kidney samples, approximately 11,000 murine genes
Assay: Kidney gene expression on oligonucleotide arrays in murine model of autoimmune kidney disease (untreated, rapamycin-treated, anti-B7-treated)
Assay type: in vivo, NZB/NZW F1 mice
Conditions: Example 2(A); normalized = difference in expression of less than five versus untreated asymptomatic mice
Description: NZB/NZW F1 (B/W) mice develop an autoimmune kidney disease that is analogous to human systemic erythematosus. Mice, aged at intervals from 12 weeks (asymptomatic) to 42 weeks (diseased) were chosen to mimic the clinical presentation of patients with established SLE. By seven months of age, mice begin to develop nephritis characterized by proteinuria, anti-DNA antibody production and histopathologic changes in the kidney. […]
Labeled RNA was prepared from clones containing a T7 RNA polymerase promoter site by incorporating labeled ribonucleotides in an in vitro transcription (IVT) reaction. […] RNA was concentrated and then quantitated by spectrophotometry. […]
The labeled and fragmented RNA probes were diluted in 1×MES buffer, BIO948, Bio C, B cre, 100 μg/ml herring sperm DNA, and 50 μg/ml acetylated BSA. […] When biotin-labeled RNA was used, the hybridized RNA was stained with a streptavidin-phycoerythrin conjugate (Molecule Probes, Eugene, Oreg.) prior to reading. […] The arrays were again washed and stained with streptavidin SSPE-T prior to being reading. The arrays were read using a scanning confocal microscope made for Affymetrix by Molecular Dynamics (commercially available through Affymetrix, Santa Clara, Calif.). […]

With CO[C@H]1C[C@@H]2CC[C@@H](C)[C@@](O)(O2)C(=O)C(=O)N2CCCC[C@H]2C(=O)O[C@H]([C@H](C)C[C@@H]2CC[C@@H](O)[C@H](OC)C2)CC(=O)[C@H](C)/C=C(\C)[C@@H](O)[C@@H](OC)C(=O)[C@H](C)C[C@H](C)/C=C/C=C/C=C/1C [rapamycin] the “number of genes not normalized by rapamycin treatment” value was 23 genes.
